ChEMBL document CHEMBL2321764, “Synthesis and antibacterial activities of new piperidine substituted (5R)-[1,2,3]triazolylmethyl and (5R)-[(4-F-[1,2,3]triazolyl)methyl] oxazolidinones” (Bioorg Med Chem Lett, 2013)
Converted amounts (≈) assume the structure as drawn.

Assays:
Staphylococcus aureus = test: Antibacterial activity against methicillin-resistant Staphylococcus aureus C463 by agar dilution method; format: functional
Haemophilus influenzae = test: Antibacterial activity against betalactamase positive Haemophilus influenzae by agar dilution method; format: functional
Staphylococcus = test: Antibacterial activity against methicillin-resistant coagulase negative Staphylococcus by agar dilution method; format: functional
Enterococcus faecalis = test: Antibacterial activity against vancomycin-resistant Enterococcus faecalis C474 by agar dilution method; format: functional
Streptococcus pyogenes = test: Antibacterial activity against Streptococcus pyogenes 308A by agar dilution method; format: functional
Streptococcus agalactiae = test: Antibacterial activity against Streptococcus agalactiae ATCC 2901 by agar dilution method; format: functional
Enterococcus faecium = test: Antibacterial activity against vancomycin-resistant Enterococcus faecium C803 by agar dilution method; format: functional
Streptococcus pneumoniae = test: Antibacterial activity against penicillin-resistant Streptococcus pneumoniae C402 by agar dilution method; format: functional
CYP1A2 = target: T1, CYP1A2 (Homo sapiens, UniProt P05177); test: Inhibition of CYP1A2 (unknown origin) assessed as residual activity at 10 uM; format: ADME; conditions: read-out: INH
T1 sequence (P05177 whole entry): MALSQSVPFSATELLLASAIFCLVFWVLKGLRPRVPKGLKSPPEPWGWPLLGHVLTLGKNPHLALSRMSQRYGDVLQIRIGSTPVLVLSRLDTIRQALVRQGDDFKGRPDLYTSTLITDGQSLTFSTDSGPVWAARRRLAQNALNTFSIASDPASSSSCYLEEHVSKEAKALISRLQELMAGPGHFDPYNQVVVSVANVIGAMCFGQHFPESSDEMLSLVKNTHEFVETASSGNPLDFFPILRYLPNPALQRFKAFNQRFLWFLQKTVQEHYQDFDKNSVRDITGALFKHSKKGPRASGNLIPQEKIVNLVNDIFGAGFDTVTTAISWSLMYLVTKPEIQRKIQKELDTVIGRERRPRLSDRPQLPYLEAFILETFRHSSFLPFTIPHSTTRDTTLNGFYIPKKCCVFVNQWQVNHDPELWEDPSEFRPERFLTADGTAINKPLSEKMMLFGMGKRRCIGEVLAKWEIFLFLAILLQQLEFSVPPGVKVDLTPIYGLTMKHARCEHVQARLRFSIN

CYP3A4 = CYP3A4 (Homo sapiens, UniProt P08684); test: Inhibition of CYP3A4 (unknown origin) assessed as residual activity at 10 uM; format: ADME; conditions: read-out: INH
CYP3A4, sequence (P08684 whole entry): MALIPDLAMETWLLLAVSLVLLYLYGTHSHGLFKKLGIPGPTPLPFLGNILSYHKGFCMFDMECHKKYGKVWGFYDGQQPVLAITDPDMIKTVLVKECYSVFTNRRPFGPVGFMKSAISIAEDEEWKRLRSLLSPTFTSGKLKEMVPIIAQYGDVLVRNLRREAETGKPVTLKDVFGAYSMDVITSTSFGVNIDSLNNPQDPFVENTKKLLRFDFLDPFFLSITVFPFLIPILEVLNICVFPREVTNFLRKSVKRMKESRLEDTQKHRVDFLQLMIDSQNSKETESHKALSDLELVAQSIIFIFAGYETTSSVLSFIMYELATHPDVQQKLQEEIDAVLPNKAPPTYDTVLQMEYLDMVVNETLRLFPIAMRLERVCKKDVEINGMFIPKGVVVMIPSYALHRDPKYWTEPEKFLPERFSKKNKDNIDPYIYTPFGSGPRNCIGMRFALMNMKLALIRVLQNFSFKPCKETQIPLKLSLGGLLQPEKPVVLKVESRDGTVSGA

MAO-B = target: T2, MAO-B (Homo sapiens, UniProt P27338); test: Inhibition of human MAO-B assessed as residual activity at 10 uM; conditions: read-out: INH
T2 sequence (P27338 whole entry): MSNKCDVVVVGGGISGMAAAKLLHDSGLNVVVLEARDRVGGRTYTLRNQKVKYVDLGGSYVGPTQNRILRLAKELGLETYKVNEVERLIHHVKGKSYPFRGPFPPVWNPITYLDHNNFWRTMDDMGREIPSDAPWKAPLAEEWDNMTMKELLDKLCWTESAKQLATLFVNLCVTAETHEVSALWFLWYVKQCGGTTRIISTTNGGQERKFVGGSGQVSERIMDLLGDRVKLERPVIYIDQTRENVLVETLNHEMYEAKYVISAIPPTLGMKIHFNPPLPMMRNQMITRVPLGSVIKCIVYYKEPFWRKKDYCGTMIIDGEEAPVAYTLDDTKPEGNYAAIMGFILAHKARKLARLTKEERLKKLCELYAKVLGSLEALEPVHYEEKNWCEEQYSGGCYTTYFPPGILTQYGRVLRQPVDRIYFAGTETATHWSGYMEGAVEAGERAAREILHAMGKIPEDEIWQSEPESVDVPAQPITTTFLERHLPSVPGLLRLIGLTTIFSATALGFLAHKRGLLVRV

[1] = target: Voltage-gated inwardly rectifying potassium channel KCNH2 (Homo sapiens, UniProt Q12809); test: Inhibition of human hERG by automated patch clamp assay
Voltage-gated inwardly rectifying potassium channel KCNH2, sequence (Q12809 whole entry): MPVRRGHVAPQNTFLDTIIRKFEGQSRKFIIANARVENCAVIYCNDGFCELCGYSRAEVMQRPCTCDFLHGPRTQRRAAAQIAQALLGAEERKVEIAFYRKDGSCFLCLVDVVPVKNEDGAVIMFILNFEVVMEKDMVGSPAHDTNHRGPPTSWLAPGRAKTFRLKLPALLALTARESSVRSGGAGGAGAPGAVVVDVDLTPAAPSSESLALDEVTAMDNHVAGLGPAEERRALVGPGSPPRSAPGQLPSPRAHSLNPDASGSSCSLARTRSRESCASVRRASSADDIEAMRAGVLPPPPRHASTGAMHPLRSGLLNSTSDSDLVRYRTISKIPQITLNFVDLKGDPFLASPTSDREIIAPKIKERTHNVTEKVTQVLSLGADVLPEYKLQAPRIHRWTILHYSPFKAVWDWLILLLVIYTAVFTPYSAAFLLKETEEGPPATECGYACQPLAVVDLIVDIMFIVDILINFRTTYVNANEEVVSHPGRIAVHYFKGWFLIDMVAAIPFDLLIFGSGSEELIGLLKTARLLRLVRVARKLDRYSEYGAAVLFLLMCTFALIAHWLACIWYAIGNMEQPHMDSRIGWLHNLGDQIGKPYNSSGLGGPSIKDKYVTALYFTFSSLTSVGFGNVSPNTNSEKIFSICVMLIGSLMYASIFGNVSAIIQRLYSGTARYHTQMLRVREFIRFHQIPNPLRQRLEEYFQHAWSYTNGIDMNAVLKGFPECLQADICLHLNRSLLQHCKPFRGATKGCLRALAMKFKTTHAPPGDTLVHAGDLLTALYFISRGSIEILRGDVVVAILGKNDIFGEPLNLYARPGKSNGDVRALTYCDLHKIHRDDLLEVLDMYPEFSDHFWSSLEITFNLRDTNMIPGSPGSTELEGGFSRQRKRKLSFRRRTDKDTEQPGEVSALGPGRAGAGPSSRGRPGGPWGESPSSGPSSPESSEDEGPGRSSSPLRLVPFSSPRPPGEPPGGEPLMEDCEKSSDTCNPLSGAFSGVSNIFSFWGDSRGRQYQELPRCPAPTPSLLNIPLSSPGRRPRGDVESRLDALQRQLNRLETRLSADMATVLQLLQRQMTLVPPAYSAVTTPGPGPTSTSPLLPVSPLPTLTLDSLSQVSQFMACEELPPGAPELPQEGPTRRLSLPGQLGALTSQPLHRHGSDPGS

MAO-A = target: T3, MAO-A (Homo sapiens, UniProt P21397); test: Inhibition of human MAO-A assessed as residual activity at 10 uM; conditions: read-out: INH
T3 sequence (P21397 whole entry): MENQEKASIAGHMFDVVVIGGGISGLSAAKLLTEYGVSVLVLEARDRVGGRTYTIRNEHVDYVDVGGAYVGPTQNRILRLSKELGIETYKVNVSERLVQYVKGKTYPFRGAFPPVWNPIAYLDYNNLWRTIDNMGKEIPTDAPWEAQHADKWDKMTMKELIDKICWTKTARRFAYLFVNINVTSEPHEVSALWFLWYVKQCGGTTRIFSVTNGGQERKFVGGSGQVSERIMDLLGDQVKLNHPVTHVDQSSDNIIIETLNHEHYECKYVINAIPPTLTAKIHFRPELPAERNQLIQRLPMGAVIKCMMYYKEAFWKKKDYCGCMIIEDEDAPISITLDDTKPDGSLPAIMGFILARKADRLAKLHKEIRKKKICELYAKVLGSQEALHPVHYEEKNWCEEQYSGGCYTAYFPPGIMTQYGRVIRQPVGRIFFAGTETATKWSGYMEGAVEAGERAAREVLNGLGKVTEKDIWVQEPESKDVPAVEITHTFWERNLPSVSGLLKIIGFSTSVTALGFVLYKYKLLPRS

CYP2C9 = CYP2C9 (Homo sapiens, UniProt P11712); test: Inhibition of CYP2C9 (unknown origin) assessed as residual activity at 10 uM; format: ADME; conditions: read-out: INH
CYP2C9, sequence (P11712 whole entry): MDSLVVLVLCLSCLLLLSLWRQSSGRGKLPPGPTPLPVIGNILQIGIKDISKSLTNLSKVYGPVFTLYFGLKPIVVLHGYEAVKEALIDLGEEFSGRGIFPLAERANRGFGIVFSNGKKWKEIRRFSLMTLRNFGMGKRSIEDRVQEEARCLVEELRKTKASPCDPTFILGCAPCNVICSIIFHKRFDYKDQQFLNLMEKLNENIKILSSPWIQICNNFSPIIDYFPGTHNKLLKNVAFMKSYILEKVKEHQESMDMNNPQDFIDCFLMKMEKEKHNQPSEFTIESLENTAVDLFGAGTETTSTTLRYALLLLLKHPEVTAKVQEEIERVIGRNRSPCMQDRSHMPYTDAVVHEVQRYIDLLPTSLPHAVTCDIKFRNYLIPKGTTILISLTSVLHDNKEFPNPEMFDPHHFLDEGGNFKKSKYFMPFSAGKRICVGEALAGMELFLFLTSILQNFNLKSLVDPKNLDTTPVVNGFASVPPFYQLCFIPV

CYP2D6 = CYP2D6 (Homo sapiens, UniProt P10635); test: Inhibition of CYP2D6 (unknown origin) assessed as residual activity at 10 uM; format: ADME; conditions: read-out: INH
CYP2D6, sequence (P10635 whole entry): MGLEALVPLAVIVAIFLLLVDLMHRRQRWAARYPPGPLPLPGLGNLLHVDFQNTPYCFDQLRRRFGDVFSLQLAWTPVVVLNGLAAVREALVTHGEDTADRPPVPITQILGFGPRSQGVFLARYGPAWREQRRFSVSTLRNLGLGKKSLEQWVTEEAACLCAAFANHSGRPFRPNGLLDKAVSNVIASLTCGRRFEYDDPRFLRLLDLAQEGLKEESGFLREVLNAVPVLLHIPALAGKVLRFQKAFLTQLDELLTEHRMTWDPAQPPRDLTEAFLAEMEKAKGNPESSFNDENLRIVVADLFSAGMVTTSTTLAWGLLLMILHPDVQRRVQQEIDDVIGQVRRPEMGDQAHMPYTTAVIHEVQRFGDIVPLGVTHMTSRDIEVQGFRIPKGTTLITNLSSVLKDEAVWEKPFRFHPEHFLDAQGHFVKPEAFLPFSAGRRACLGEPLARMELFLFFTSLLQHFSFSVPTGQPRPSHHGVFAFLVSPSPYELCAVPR

Row | SMILES | MIC (Staphylococcus aureus) | MIC (Haemophilus influenzae) | MIC (Staphylococcus) | MIC (Enterococcus faecalis) | MIC (Streptococcus pyogenes) | MIC (Streptococcus agalactiae) | MIC (Enterococcus faecium) | MIC (Streptococcus pneumoniae) | activity at 10 µM (CYP1A2) | activity at 10 µM (CYP3A4) | activity at 10 µM (MAO-B) | IC50 [1] | activity at 10 µM (MAO-A) | activity at 10 µM (CYP2C9) | activity at 10 µM (CYP2D6)
1 | N#CCC1=CCN(c2ccc(N3C[C@H](Cn4cc(F)nn4)OC3=O)cc2F)CC1 | 100 µg/mL (≈ 250 µM) | 12.5 µg/mL (≈ 31.2 µM) | 100 µg/mL (≈ 250 µM) | 100 µg/mL (≈ 250 µM) | 25 µg/mL (≈ 62.4 µM) | 25 µg/mL (≈ 62.4 µM) | 100 µg/mL (≈ 250 µM) | 50 µg/mL (≈ 125 µM) | – | – | – | – | – | – | –
2 | N#CC1=CCN(c2ccc(N3C[C@H](Cn4cc(F)nn4)OC3=O)cc2F)CC1 | 100 µg/mL (≈ 259 µM) | 6.26 µg/mL (≈ 16.2 µM) | 100 µg/mL (≈ 259 µM) | 50 µg/mL (≈ 129 µM) | 50 µg/mL (≈ 129 µM) | 100 µg/mL (≈ 259 µM) | 50 µg/mL (≈ 129 µM) | 6.25 µg/mL (≈ 16.2 µM) | – | – | – | – | – | – | –
3 | N#CC1=CCN(c2ccc(N3C[C@H](Cn4ccnn4)OC3=O)cc2F)CC1 | 3.12 µg/mL (≈ 8.47 µM) | 1.56 µg/mL (≈ 4.23 µM) | 3.12 µg/mL (≈ 8.47 µM) | 3.12 µg/mL (≈ 8.47 µM) | 1.56 µg/mL (≈ 4.23 µM) | 1.56 µg/mL (≈ 4.23 µM) | 3.12 µg/mL (≈ 8.47 µM) | 1.56 µg/mL (≈ 4.23 µM) | – | – | – | – | – | – | –
4 | CCOC(=O)C(Cl)=C1CCN(c2ccc(N3C[C@H](Cn4ccnn4)OC3=O)cc2F)CC1 | 25 µg/mL (≈ 53.9 µM) | 6.25 µg/mL (≈ 13.5 µM) | 25 µg/mL (≈ 53.9 µM) | 12.5 µg/mL (≈ 26.9 µM) | 6.25 µg/mL (≈ 13.5 µM) | 6.25 µg/mL (≈ 13.5 µM) | 25 µg/mL (≈ 53.9 µM) | 12.5 µg/mL (≈ 26.9 µM) | – | – | – | – | – | – | –
5 | CCOC(=O)C(C)=C1CCN(c2ccc(N3C[C@H](Cn4ccnn4)OC3=O)cc2F)CC1 | 12.5 µg/mL (≈ 28.2 µM) | 1.56 µg/mL (≈ 3.52 µM) | 12.5 µg/mL (≈ 28.2 µM) | 6.25 µg/mL (≈ 14.1 µM) | 0.78 µg/mL (≈ 1.76 µM) | 1.56 µg/mL (≈ 3.52 µM) | 6.25 µg/mL (≈ 14.1 µM) | 0.78 µg/mL (≈ 1.76 µM) | – | – | – | – | – | – | –
6 | N#CCC1=CCN(c2ccc(N3C[C@H](Cn4ccnn4)OC3=O)cc2F)CC1 | 3.12 µg/mL (≈ 8.16 µM) | 1.56 µg/mL (≈ 4.08 µM) | 3.12 µg/mL (≈ 8.16 µM) | 3.12 µg/mL (≈ 8.16 µM) | 0.39 µg/mL (≈ 1.02 µM) | 1.56 µg/mL (≈ 4.08 µM) | 3.12 µg/mL (≈ 8.16 µM) | 0.39 µg/mL (≈ 1.02 µM) | – | – | – | – | – | – | –
7 | COC(=O)C=C1CCN(c2ccc(N3C[C@H](Cn4ccnn4)OC3=O)cc2F)CC1 | 3.12 µg/mL (≈ 7.51 µM) | 1.56 µg/mL (≈ 3.76 µM) | 3.12 µg/mL (≈ 7.51 µM) | 3.12 µg/mL (≈ 7.51 µM) | 0.78 µg/mL (≈ 1.88 µM) | 1.56 µg/mL (≈ 3.76 µM) | 6.25 µg/mL (≈ 15 µM) | 0.78 µg/mL (≈ 1.88 µM) | – | – | – | – | – | – | –
8 | CC(C#N)=C1CCN(c2ccc(N3C[C@H](Cn4cc(F)nn4)OC3=O)cc2F)CC1 | 100 µg/mL (≈ 241 µM) | 6.25 µg/mL (≈ 15.1 µM) | 100 µg/mL (≈ 241 µM) | 100 µg/mL (≈ 241 µM) | 6.25 µg/mL (≈ 15.1 µM) | 12.5 µg/mL (≈ 30.2 µM) | 100 µg/mL (≈ 241 µM) | 6.25 µg/mL (≈ 15.1 µM) | 92.8% | 21.4% | 34.8% | 21 µM | 10.2% | 64.8% | 106%
9 | CCOC(=O)C(Cl)=C1CCN(c2ccc(N3C[C@H](Cn4cc(F)nn4)OC3=O)cc2F)CC1 | 100 µg/mL (≈ 208 µM) | 50 µg/mL (≈ 104 µM) | 100 µg/mL (≈ 208 µM) | 100 µg/mL (≈ 208 µM) | 50 µg/mL (≈ 104 µM) | 25 µg/mL (≈ 51.9 µM) | 100 µg/mL (≈ 208 µM) | 100 µg/mL (≈ 208 µM) | – | – | – | – | – | – | –
10 | N#CC=C1CCN(c2ccc(N3C[C@H](Cn4cc(F)nn4)OC3=O)cc2F)CC1 | 50 µg/mL (≈ 125 µM) | 6.25 µg/mL (≈ 15.6 µM) | 100 µg/mL (≈ 250 µM) | 50 µg/mL (≈ 125 µM) | 50 µg/mL (≈ 125 µM) | 100 µg/mL (≈ 250 µM) | 50 µg/mL (≈ 125 µM) | 6.25 µg/mL (≈ 15.6 µM) | 91.8% | 23.6% | 19.5% | – | 50.6% | 66.6% | 117%
